Where “and” joins values, the source holds several entries; their conditions need not be identical. Equal entries are not always repeated.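 Method: 48-hour compound exposure of cells in 96-well plates, five concentrations, linear interpolation of endpoints. GI50 is the concentration that inhibits growth by half. TGI is the concentration that stops growth completely.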
Key:
Test in all cases: NCI tumour cell line growth inhibition, 48 h
SK-MEL-28 melanoma = test system: SK-MEL-28 melanoma
MDA-MB-435 = test system: MDA-MB-435
SK-MEL-5 melanoma = test system: SK-MEL-5 melanoma
SNB-75 CNS = test system: SNB-75 CNS
OVCAR-3 ovarian = test system: OVCAR-3 ovarian
ACHN renal = test system: ACHN renal
KM12 colon = test system: KM12 colon
MALME-3M melanoma = test system: MALME-3M melanoma
NCI-H460 lung = test system: NCI-H460 lung
MDA-MB-231 breast = test system: MDA-MB-231 breast

| SMILES | GI50 (SK-MEL-28 melanoma) | TGI (SK-MEL-28 melanoma) [µM] | GI50 (MDA-MB-435) | TGI (MDA-MB-435) [µM] | GI50 (SK-MEL-5 melanoma) [µM] | TGI (SK-MEL-5 melanoma) [µM] | GI50 (SNB-75 CNS) | TGI (SNB-75 CNS) [µM] | GI50 (OVCAR-3 ovarian) | TGI (OVCAR-3 ovarian) [µM] | GI50 (ACHN renal) | TGI (ACHN renal) [µM] | GI50 (KM12 colon) [µM] | TGI (KM12 colon) [µM] | GI50 (MALME-3M melanoma) | TGI (MALME-3M melanoma) [µM] | GI50 (NCI-H460 lung) | TGI (NCI-H460 lung) [µM] | GI50 (MDA-MB-231 breast) [µM] | TGI (MDA-MB-231 breast) [µM] |
| --- | --- | --- | --- | --- | --- | --- | --- | --- | --- | --- | --- | --- | --- | --- | --- | --- | --- | --- | --- | --- |
| Cc1cc2c(cc1C)[n+](=O)c(C(=O)c1ccccc1)c(C(F)F)n2[O-] | 17.8 µM | > 100 | 26.3 µM | > 100 | 9.3 | 25 | 60.9 µM | > 100 | 18.4 µM | > 100 | 18 µM | > 100 | 20.5 | > 100 | 23.2 µM | 62.9 | 5 µM | > 100 | 30.4 | > 100 |
| CCCCCCCCCCSC(=N)N (tested in a mixture with another compound) | 2.65 µM | 8.15 | 1.7 µM | 3.27 | 2.83 | 8.55 | 1.42 µM | 3.43 | 2.36 µM | 6.28 | 2.86 µM | 10.1 | 1.97 | 4.12 | 2.24 µM | 5.07 | 2.64 µM | 6.28 | 1.8 | 4.22 |
| Cc1ccc(NC2=C3CCCCC3OC2=O)cc1 (stereo unspecified) | > 100 µM | > 100 | 55.2 µM | > 100 | 34.9 | > 100 | 71.9 µM | > 100 | 68.7 µM | > 100 | > 100 µM | > 100 | > 100 | > 100 | 39.2 µM | > 100 | > 100 µM | > 100 | 35.2 | > 100 |
| COc1ccc(CN2C(=O)C(Cl)=C(Nc3cccc(C(F)(F)F)c3)C2=O)cc1 | 4.89 µM | 18.2 | 2.77 µM | 9.12 | 4.38 | 18.5 | 11.9 µM | 27.3 | 4.19 µM | 15.8 | 6.71 µM | 20.5 | 7.83 | 25.6 | 2.99 µM | 22.7 | 3.1 µM | 15.1 | 3.39 | 18 |
| Nc1nc2[nH]cc(CCc3ccc(C(=O)N[C@@H](CCC(=O)O)C(=O)O)cc3)c2c(=O)[nH]1 | – | > 100 | – | > 100 | – | > 100 | – | > 100 | – | > 100 | 0.129 µM | > 100 | – | > 100 | – | > 100 | 0.272 µM | > 100 | > 100 | > 100 |
| O=C1c2c(F)c(F)c(F)c(F)c2C(=O)N1c1ccc(F)cc1F | 13.4 µM | > 72.4 | 13.9 µM | 38.3 | 13.1 | 30.6 | 12.7 µM | 34.6 | 9.17 µM | 27.5 | 10.1 µM | 23 | 22.5 | 65.5 | 13.4 µM | 33.9 | 9.35 µM | > 51 | 5.53 | 19.5 |
| O=C1CSC(=S)N1/N=C/c1ccc(Cl)c([N+](=O)[O-])c1 | – | 62.1 | – | 54.3 | – | > 100 | – | > 100 | – | 42.5 | – | 45.6 | – | > 100 | – | 40.4 | – | > 100 | – | 48 |
| O=C(Nc1cccc(C(F)(F)F)c1)Nc1cccc(C(F)(F)F)c1 | 1.86 µM | 10.5 | 1.44 µM | 5.51 | 1.28 | 2.55 | 3.49 µM | 31.7 | 0.408 µM | 5.04 | 0.422 µM | 7.6 | 0.444 | 3.19 | 1.36 µM | 3.92 | 0.441 µM | 5.73 | 1.47 | 3.29 |
| CN(C)CC(O)c1ccc(/C=C/c2ccc(Cl)cc2)cc1 (stereo unspecified) | 1.84 µM | 3.45 | 1.62 µM | 3.13 | 3.49 | 13.7 | 1.71 µM | 4.18 | 1.57 µM | 2.91 | 1.63 µM | 3.01 | 1.66 | 3.03 | 1.6 µM | 3.34 | 1.45 µM | 2.75 | 1.7 | 3.14 |
| CN1CCN(c2ccc(Nc3ncc(Cl)c(NC[C@@H]4CCCO4)n3)cc2)CC1 | 4.18 µM | 21.5 | 1.64 µM | 15.3 | 2.52 | 13.6 | 1.14 µM | 4.72 | 2.53 µM | > 100 | 0.973 µM | > 100 | 0.362 | 11.7 | 1.49 µM | 8.06 | 0.573 µM | 6.55 | 1.62 | 8.29 |
| COC(=O)/C=C/c1cc(OC(C)=O)c2c(c1)[C@@H](C(=O)OC)[C@H](c1ccc(OC(C)=O)c(OC(C)=O)c1)O2 | 0.852 µM | 80.8 | 0.0166 µM | 0.0466 | 0.0493 | 2.34 | 0.0191 µM | 1.48 | 0.0267 µM | 0.0681 | 0.0705 µM | 52.5 | 0.203 | 18.7 | 0.0512 µM | 48.7 | 0.299 µM | 15 | 0.305 | 34.4 |
| COC(=O)[C@]12CC[C@@H](C)[C@H](C)[C@@H]1C1=CC[C@@H]3[C@@]4(C)C[C@@H](O)[C@H](O)[C@@](C)(CO)[C@@H]4[C@H](O)C[C@@]3(C)[C@]1(C)CC2 | 11.8 µM | 30.3 | 13 µM | 27.3 | 15.3 | 28.9 | 12.3 µM | 28.1 | 12.8 µM | 26 | 7.8 µM | 21.6 | 12.3 | 26.4 | 13 µM | 32 | 14.8 µM | 33.6 | 13 | 29.8 |
| Cc1ccc(-c2nc(N3CCNCC3)c3oc(-c4ccc(C)cc4)nc3n2)cc1 | 6.14 µM | 11.5 | 2.3 µM | 6.22 | > 39.2 | > 53.9 | 8.66 µM | > 32.1 | 1.95 µM | 3.87 | 2.23 µM | 4.78 | 1.66 | 3.2 | 7.23 µM | 18.9 | 2.03 µM | 4.41 | 1.77 | 3.45 |
| COc1cc2c(cc1OC)-c1cc(OC)c(OC)cc1C(CN(C)C)C2 (stereo unspecified) | > 10 µM | > 10 | > 10 µM | > 10 | > 10 | > 10 | 4.56 µM | > 10 | > 10 µM | > 10 | > 10 µM | > 10 | > 10 | > 10 | > 10 µM | > 10 | > 10 µM | > 10 | > 10 | > 10 |
| CN1CCN(C(=O)COc2ccc(C34CC5CC(CC(C5)C3)C4)cc2)CC1 | 12.7 µM | 26.2 | 14.6 µM | 28.8 | 10.3 | 22.7 | 14.1 µM | 29.3 | 13.4 µM | 27.3 | 17.2 µM | 39.5 | 14.8 | 32.4 | 7.64 µM | 22.3 | 13.2 µM | 27.5 | 13 | 27.8 |
| NC(N)=NS(=O)(=O)c1ccc(N=Nc2c(O)c(C(=O)O)cc3ccccc23)cc1 | – | > 100 | – | > 100 | – | > 100 | – | > 100 | – | > 100 | – | > 100 | – | > 100 | – | > 100 | – | > 100 | – | > 100 |
| Br[Se]c1ccccn1 | – | 37.5 | – | 31.8 | – | 28.9 | – | 30.7 | – | 28.9 | – | 29.9 | – | 31.7 | – | 31.2 | – | 42 | – | 31.5 |
| O=C(O)C(Cl)Cl | 3150 µM and > 10000 µM | > 10000 | 5460 µM and > 10000 µM | > 10000 | > 10000 | > 10000 | 3500 µM and > 10000 µM | > 10000 | 4710 µM and > 10000 µM | > 10000 | 5700 µM and > 10000 µM | > 10000 | > 10000 | > 10000 | 2500 µM and > 10000 µM | > 10000 | 6070 µM and > 10000 µM | > 10000 | > 10000 | > 10000 |
| O=C1NC(=NCc2ccccc2)S/C1=C\c1ccc2ncccc2c1 | > 25 µM | > 25 | > 25 µM | > 25 | > 25 | > 25 | > 25 µM | > 25 | > 25 µM | > 25 | > 25 µM | > 25 | > 25 | > 25 | > 25 µM | > 25 | > 25 µM | > 25 | > 25 | > 25 |
| CC(=O)OC1(C)N=NC2(CCCCC2)O1 (stereo unspecified) | – | > 100 | – | > 100 | – | > 100 | – | > 100 | – | > 100 | – | > 100 | – | > 100 | – | > 100 | – | > 100 | – | > 100 |
| Cc1cc(Nc2ccc(C)c(Cl)c2)n2nc(C(F)(F)F)nc2n1 | 29.8 µM | > 100 | 19 µM | 55.6 | 14.3 | 27.9 | 27.7 µM | > 100 | 22 µM | 75.9 | 16.3 µM | 35.9 | 27.2 | > 100 | 30.4 µM | 97.9 | 20.9 µM | 78.7 | 23.7 | > 100 |
| CN(C)c1ccc(/C=N/NC(=S)Nc2ccccc2)cc1 | – | > 100 | – | > 100 | – | > 100 | – | > 100 | – | > 100 | – | > 100 | – | > 100 | – | > 100 | – | > 100 | – | > 100 |
| O=[N+]([O-])c1cc([N+](=O)[O-])c(C(F)(F)F)cc1NN=C(c1ccc(O)cc1)c1ccc(O)cc1 | 1.89 µM | 4.47 | 1.92 µM | 4.92 | 1.64 | 3 | 3.53 µM | 16.8 | 2.42 µM | 6.11 | 2.41 µM | 8.23 | 2.7 | 7.85 | 4.72 µM | 35.1 | 2.05 µM | 5.13 | 3.11 | 9.41 |
| C=C(C)C12OC1[C@@]1(C)C(=CC2=O)CCC(O)[C@@H]1C (stereo partly specified) | – | > 100 | – | 21.1 | – | 36.7 | – | 38.8 | – | > 100 | – | 2.42 | – | 16.7 | – | 25.1 | – | 11.4 | – | 7.11 |
| O=C1OCC2=C1C(c1cccc(Br)c1)c1cc3c(cc1N2CCO)OCCO3 (stereo unspecified) | 0.0884 µM | > 50 | – | 0.0241 | 0.0348 | 0.252 | 0.0397 µM | > 35.4 | 0.0345 µM | 0.0967 | 0.103 µM | > 34 | 0.0442 | 2.31 | 0.0288 µM | 20.8 | 0.0588 µM | 2.21 | 0.209 | 2.85 |
| C/C=C/[C@@H]1O[C@@H]2COC(=O)C2=C[C@@H]1O | 15.3 µM | 32.9 | 18.8 µM | 37.3 | 16.7 | 31.5 | 28.5 µM | 54 | 4.19 µM | 22.2 | 3.58 µM | 13.4 | 20.5 | 53.2 | 1.96 µM | 6.85 | > 57.7 µM | > 100 | 19.6 | 39.7 |
| COc1cc(-c2nn(-c3cccc(NC(=O)c4ccccc4)c3)cc2-c2ccncc2)ccc1Cl | 3.26 µM | > 100 | 0.184 µM | 0.508 | 0.259 | 0.945 | 0.575 µM | > 100 | 0.313 µM | 13.9 | 0.72 µM | > 100 | 0.467 | 96.9 | 0.344 µM | – | 0.366 µM | > 33.2 | 1.06 | > 36.9 |
